Measured values: patent EP4733383A1, “CULTURE MEDIUM AND BLOOD CELL CLONE, AND METHOD FOR PRODUCING SAME” (Japan Institute for Health Security, priority 2023, dated 2024)
“Also recorded” adds a separate entry of the source.

Tests used:
Type in all cases: cell-based
[1] = tested on: mouse HSCs; assay: Short-term culture of HSCs (one week) with thyroid hormones and metabolites; conditions: 10 µM; for number of HSCs after culture (total cell count per colony): 300 mouse HSCs cultured one week in SF-O3, SCF 100ng/mL, TPO 100ng/mL, vs control (Ctl), Figure 1; for CD48 expression (mean fluorescence intensity of CD48 staining per colony): one week culture, CD48 is a marker for cells differentiating from HSCs, Figure 2
Method: Method: A population containing mouse hematopoietic stem cells was processed using a cell sorter to enrich cells with the surface phenotype CD150^+ CD48^- EPCR^+ Lineage^- Sca-1^+c-Kit^+. These purified cells are hereinafter referred to as mouse HSCs. 300 mouse HSCs were cultured for one week at 37°C under 5% CO2 in medium containing SF-O3 (Sanko Junyaku), SCF 100ng/mL, and TPO 100ng/mL. The number of cells in each colony formed after culture was counted. All subsequent culture experiments were performed at 37°C under 5% CO2. The concentration of each thyroid hormone and its metabolites was set to 10 µM. The control group (Ctl) medium contained no added thyroid hormones or metabolites.
Results: The groups treated with thyroid hormones and their metabolites were compared to the control group (Ctl). […] Circles represent counts per colony. Error bars indicate standard deviation. "Ctl" on the x-axis denotes the absence of added thyroid hormones and their metabolites. […] Circles represent measured values per colony. Error bars indicate standard deviation.
In Figures 1 and 2, T4 denotes thyroxine (T4). T3 denotes 3,3',5-triiodo-L-thyronine (T3). rT3 denotes 3,3',5'-triiodothyronine (rT3). 3,3'T2 denotes 3,3'-diiodo-L-thyronine (3,3'-T2). 3,5T2 denotes 3,5-diiodo-L-thyronine (3,5-T2). 3',5'T2 denotes 3',5'-diiodo-L-thyronine (3',5'-T2). T1AA denotes 3-iodothyroacetic acid (3-T1AA). T1AM denotes 3-iodothyronamine (3-T1AM). L-T0 denotes L-thyronine (T0). DL-T0 denotes the racemic form of thyronine.

[2] = tested on: EPCR-positive HSCs (EPCR+HSCs); assay: Culture of HSCs in the presence of carboxylic acid derivatives of thyronine; conditions: compared to the control group treated with DMSO alone; Figure 9
Excerpt: T3 represents 3,3',5-triiodo-L-thyronine (T3). T3 acetic acid denotes 3,3',5-triiodo-L-thyroacetic acid (T3AA). 35T2 denotes 3,5-diiodo-L-thyronine (3,5-T2). 35T2 acetic acid denotes 3,5-diiodo-L-thyroacetic acid (3,5-T2AA). 33T2 denotes 3,3'-diiodo-L-thyronine (3,3'-T2).

[3] = tested on: mouse-derived HSCs; assay: Expansion of mouse-derived HSCs in serum-free medium containing PVA; conditions: serum-free medium containing PVA and T2
Method: Mouse-derived HSCs were cultured in serum-free medium containing PVA and T2 instead of the serum-containing T2 medium described above. HSC expansion was also promoted in this serum-free medium. Furthermore, HSC differentiation was suppressed. At this time, the optimal concentration of T2 was 0.1 µM.

[4] = tested on: EPCR+HSC; assay: 4-week culture of hematopoietic cells in the presence of T2
Excerpt: The control group received only DMSO. Differentiated blood cells are c-Kit-negative cells. MPP3, MPP2, and MPP1 are multipotent progenitor cells (MPPs) referred to as hematopoietic progenitor cells. EPCR-HSC are EPCR-negative HSCs. EPCR-HSC are slightly less functional than EPCR-positive HSCs. EPCR+HSC are EPCR-positive HSCs. EPCR+HSC represent the most undifferentiated population among HSCs.

[5] = tested on: mouse-derived HSCs; assay: Culture of HSCs in medium containing a thyroid hormone derivative; conditions: medium containing sobetirome
Excerpt: Additionally, HSC differentiation was suppressed.

Row | Compound | number of HSCs after culture (total cell count per colony) [1] | CD48 expression (mean fluorescence intensity of CD48 staining per colony) [1] | proportion of EPCR+HSCs after culturing HSCs [2] | also measured
1 | N[C@@H](Cc1ccc(Oc2ccc(O)c(I)c2)c(I)c1)C(=O)O [3,3'-T2, 3,3'-Diiodo-L-thyronine] | high | maintained at low levels; also recorded: most strongly suppressed CD48 expression | increased | –
2 | N[C@@H](Cc1cc(I)c(Oc2ccc(O)cc2)c(I)c1)C(=O)O [3,5-T2, 3,5-Diiodo-L-thyronine] | high | maintained at low levels | increased | –
3 | O=C(O)Cc1cc(I)c(Oc2ccc(O)cc2)c(I)c1 [35T2 acetic acid, 3,5-Diiodo-L-thyroacetic acid] | – | – | increased | –
4 | O=C(O)Cc1ccc(Oc2ccc(O)cc2)c(I)c1 [T1AA, 3-Iodo-L-thyroacetic acid] | tendency to promote cell proliferation | tendency to reduce CD48 expression | – | –
5 | N[C@@H](Cc1ccc(Oc2ccc(O)c(I)c2)c(I)c1)C(=O)O [T2, 3,3'-Diiodo-L-thyronine] | – | – | – | HSC differentiation [3]: suppressed; HSC expansion [3]: promoted; optimal concentration of T2 [3]: 0.1 µM; expansion factor of EPCR+HSC ([4]; EPCR+HSC cultured 4 weeks in the presence of T2): 204 fold; EPCR+HSC expansion ([4]; EPCR+HSC cultured 4 weeks in the presence of T2, vs control group (DMSO), Figure 10): expanded more than in the control group; expansion of other cells derived from EPCR+HSC (EPCR-HSC, MPP3, MPP2, MPP1, differentiated blood cells) ([4]; EPCR+HSC cultured 4 weeks in the presence of T2, Figure 10): expanded
6 | N[C@@H](Cc1cc(I)c(Oc2ccc(O)c(I)c2)c(I)c1)C(=O)O [T3, 3,3',5-triiodo-L-thyronine] | high | maintained at low levels | increased | –
7 | N[C@@H](Cc1cc(I)c(Oc2cc(I)c(O)c(I)c2)c(I)c1)C(=O)O [T4, thyroxine] | high | maintained at low levels | – | –
8 | N[C@@H](Cc1ccc(Oc2cc(I)c(O)c(I)c2)c(I)c1)C(=O)O [rT3, 3,3',5'-Triiodothyronine] | high | maintained at low levels | – | –
9 | Cc1cc(OCC(=O)O)cc(C)c1Cc1ccc(O)c(C(C)C)c1 [sobetirome, Sobetirome] | – | – | – | HSC differentiation [5]: suppressed; HSC expansion [5]: promoted HSC expansion
